Laboratory results published in patent publication EP4324461A1, “(E)-N-CINAMOYLAMINOALKANOLES WITH MELANOGENESIS INHIBITORY ACTIVITY” (UNIWERSYTET JAGIELLONSKI, priority 2022, dated 2024).
pIC50: −log10 of the molar value. Read-outs that look alike come from different tables or passages of the source.

Legend:
[1] = Lipophilicity coefficient RM0 by reversed phase thin layer chromatography; format: physicochemical; details: RP-18 TLC, methanol / 100 mM phosphate buffer pH = 7.4
In short: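 Reversed-phase TLC on RP-18 F254 silica, with methanol/100 mM phosphate buffer pH 7.4 mobile phases of 95–65% (v/v) methanol, at room temperature, in duplicate. Spots were visualized under UV at 254 nm. RM = log(1/Rf − 1) was plotted linearly against methanol content to derive RM0.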

tyrosinase from mushroom = experiment: Inhibition of commercial mushroom tyrosinase (L-DOPA or L-tyrosine substrate); format: biochemical
In short: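 Tyrosinase (1U/well or 3U/well) in 50 mM phosphate buffer pH 6.8 with compound at final 500, 250 or 125 µM; L-DOPA (diphenolase) or L-tyrosine (monophenolase) added in separate runs. Absorbance at 475 nm after 25 min; % inhibition versus DMSO control.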

[2] = test system: B16-F10 murine melanoma cell line; experiment: Cytotoxicity in B16-F10 cells (MTT); format: cell-based; details: 48 h
In short: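 Cells in F10-Ham with 1% FBS exposed to various compound concentrations for 48 h after 24 h pre-culture. MTT read-out: formazan dissolved in DMSO, absorbance at 570 nm. Viability expressed as percent of DMSO control (AT/AC×100).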

S. typhimurium TA98 = experiment: Ames microplate test, TA98; format: cell-based, Salmonella typhimurium;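 also: reference level is the mean solvent-control yellow wells plus SD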
Protocol: Bacteria were grown overnight in growth medium.
Table 9. Ames microplate test results.

[3] = L-DOPA, read-out: Tyrosinase inhibition with L-DOPA, IC50
[4] = L-tyrosine, read-out: Tyrosinase inhibition with L-tyrosine, IC50

Cc1ccc(/C=C/C(=O)NCCCCCO)cc1 [H-415/21, (2E)-N-(5-hydroxypentyl)-3-(4-methylphenyl)prop-2-enamide]
RM0 [1]: 2.49
Tyrosinase inhibition with L-DOPA [%] (tyrosinase from mushroom; L-DOPA): 30.43±0.88% (500 µM)
Tyrosinase inhibition with L-tyrosine [%] (tyrosinase from mushroom; L-tyrosine): 25.04±5.67% (500 µM)
Cytotoxicity study in B16F10 cells % viability ([2]; 150 µM): 85.2%
Cytotoxicity study in B16F10 cells % viability ([2]; 200 µM): 90.3%
Cytotoxicity study in B16F10 cells % viability ([2]; 250 µM): 75.7%
Increase in the number of yellow wells compared to the reference level (S. typhimurium TA98; 0.5 mM, without S9): 0.47
Increase in the number of yellow wells compared to the reference level (S. typhimurium TA98; 1.0 mM, without S9): 0.24
Increase in the number of yellow wells compared to the reference level (S. typhimurium TA98; 2.0 mM, without S9): 0.35

O=C(/C=C/c1ccc(Cl)cc1)NCCCCCO [Compound A-111, (2E)-3-(4-chlorophenyl)-N-(5-hydroxypentyl)prop-2-enamide]
RM0 [1]: 2.79
Tyrosinase inhibition with L-DOPA [%] (tyrosinase from mushroom; L-DOPA, 250 µM): 59.94±1.56% (250 µM)
pIC50 (tyrosinase from mushroom; [3]): 3.83
Tyrosinase inhibition with L-tyrosine [%] (tyrosinase from mushroom; L-tyrosine): 88.98±0.98% (500 µM)
pIC50 (tyrosinase from mushroom; [4]): 4.43
Cytotoxicity study in B16F10 cells % viability ([2]; 150 µM): 88.2%
Cytotoxicity study in B16F10 cells % viability ([2]; 200 µM): 95.6%
Cytotoxicity study in B16F10 cells % viability ([2]; 250 µM): 89.7%
Increase in the number of yellow wells compared to the reference level (S. typhimurium TA98; 0.5 mM, +S9): 1.50
Increase in the number of yellow wells compared to the reference level (S. typhimurium TA98; 0.5 mM, without S9): 0.7
Increase in the number of yellow wells compared to the reference level (S. typhimurium TA98; 1.0 mM, +S9): 0.83
Increase in the number of yellow wells compared to the reference level (S. typhimurium TA98; 1.0 mM, without S9): 0.44
Increase in the number of yellow wells compared to the reference level (S. typhimurium TA98; 2.0 mM, +S9): 1.50
Increase in the number of yellow wells compared to the reference level (S. typhimurium TA98; 2.0 mM, without S9): 1.00

O=C(/C=C/c1ccc(Cl)cc1)NCCO [H-427/21, (2E)-3-(4-chlorophenyl)-N-(2-hydroxyethyl)prop-2-enamide]
RM0 [1]: 1.93
Tyrosinase inhibition with L-DOPA [%] (tyrosinase from mushroom; L-DOPA): 55.77±0.77% (500 µM)
pIC50 (tyrosinase from mushroom; [3]): 3.56
Tyrosinase inhibition with L-tyrosine [%] (tyrosinase from mushroom; L-tyrosine): 67.45±2.66% (500 µM)
pIC50 (tyrosinase from mushroom; [4]): 3.71
Cytotoxicity study in B16F10 cells % viability ([2]; 150 µM): 73.7%
Cytotoxicity study in B16F10 cells % viability ([2]; 200 µM): 80.2%
Cytotoxicity study in B16F10 cells % viability ([2]; 250 µM): 77.8%

O=C(/C=C/c1ccccc1)NCCCCCCO [H-425/21, (E)-N-(6-hydroxyhexyl)cinnamic acid amide]
RM0 [1]: 2.40
Tyrosinase inhibition with L-DOPA [%] (tyrosinase from mushroom; L-DOPA): 34.63±2.46% (500 µM)
Tyrosinase inhibition with L-tyrosine [%] (tyrosinase from mushroom; L-tyrosine): 44.61±5.99% (500 µM)
pIC50 (tyrosinase from mushroom; [4]): 3.12
Cytotoxicity study in B16F10 cells % viability ([2]; 150 µM): 109.2%
Cytotoxicity study in B16F10 cells % viability ([2]; 200 µM): 98.4%
Cytotoxicity study in B16F10 cells % viability ([2]; 250 µM): 86.9%
Increase in the number of yellow wells compared to the reference level (S. typhimurium TA98; 0.5 mM, +S9): 0.42
Increase in the number of yellow wells compared to the reference level (S. typhimurium TA98; 0.5 mM, without S9): 0.27
Increase in the number of yellow wells compared to the reference level (S. typhimurium TA98; 1.0 mM, +S9): 0.42
Increase in the number of yellow wells compared to the reference level (S. typhimurium TA98; 1.0 mM, without S9): 0.54
Increase in the number of yellow wells compared to the reference level (S. typhimurium TA98; 2.0 mM, +S9): 0.63
Increase in the number of yellow wells compared to the reference level (S. typhimurium TA98; 2.0 mM, without S9): 0.80

O=C(/C=C/c1ccc(Cl)cc1)NCCCO [H-330/21, (2E)-3-(4-chlorophenyl)-N-(3-hydroxypropyl)prop-2-enamide]
RM0 [1]: 1.94
Tyrosinase inhibition with L-DOPA [%] (tyrosinase from mushroom; L-DOPA): 55.32±1.39% (500 µM)
pIC50 (tyrosinase from mushroom; [3]): 3.58
Tyrosinase inhibition with L-tyrosine [%] (tyrosinase from mushroom; L-tyrosine): 82.49±0.65% (500 µM)
pIC50 (tyrosinase from mushroom; [4]): 3.97
Cytotoxicity study in B16F10 cells % viability ([2]; 150 µM): 78.6%
Cytotoxicity study in B16F10 cells % viability ([2]; 200 µM): 82.9%
Cytotoxicity study in B16F10 cells % viability ([2]; 250 µM): 83.9%

O=C(/C=C/c1ccccc1)NCCCCCO [Compound A-133, (2E)-N-(5-hydroxypentyl)-3-phenylprop-2-enamide]
RM0 [1]: 2.15
Tyrosinase inhibition with L-DOPA [%] (tyrosinase from mushroom; L-DOPA): 47.96±1.83% (500 µM)
pIC50 (tyrosinase from mushroom; [3]): 3.28
Tyrosinase inhibition with L-tyrosine [%] (tyrosinase from mushroom; L-tyrosine): 58.56±4.58% (500 µM)
pIC50 (tyrosinase from mushroom; [4]): 3.35
Cytotoxicity study in B16F10 cells % viability ([2]; 150 µM): 101.7%
Cytotoxicity study in B16F10 cells % viability ([2]; 200 µM): 94.9%
Cytotoxicity study in B16F10 cells % viability ([2]; 250 µM): 95.6%
Increase in the number of yellow wells compared to the reference level (S. typhimurium TA98; 0.5 mM, +S9): 0.50
Increase in the number of yellow wells compared to the reference level (S. typhimurium TA98; 0.5 mM, without S9): 0.44
Increase in the number of yellow wells compared to the reference level (S. typhimurium TA98; 1.0 mM, +S9): 0.67
Increase in the number of yellow wells compared to the reference level (S. typhimurium TA98; 1.0 mM, without S9): 0.33
Increase in the number of yellow wells compared to the reference level (S. typhimurium TA98; 2.0 mM, +S9): 1.00
Increase in the number of yellow wells compared to the reference level (S. typhimurium TA98; 2.0 mM, without S9): 0.67
